Results as given in article PMC12006171, “Marsupial cathelicidins: characterization, antimicrobial activity and evolution in this unique mammalian lineage” (Frontiers in Immunology, 2025).
≈ marks a conversion by molar mass, not a printed value. Like-named read-outs stand apart in the source and are kept apart here. Where a SMILES comes first, the peptide text is derived from it.

How the values were obtained:
[1] = tested on: Staphylococcus aureus clinical isolate – animal, methicillin-resistant (MRSA); assay type: cell-based; conditions: clinical isolate – animal, methicillin-resistant
Procedure, shortened: (§1)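 Broth microdilution per CLSI M07-A/M26A; peptides in DMSO, final 64-0.125 μg/mL, inoculum 5 x 10^5 CFU/mL. Bacteria in MHB ± 10% lysed horse blood ± Ca/Mg cations, yeasts in RPMI-1640 MOPS; 35°C for 20–24 h. MIC is lowest concentration without visible growth.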

[2] = tested on: Staphylococcus aureus clinical isolate – animal, penicillin-resistant (PRSA); assay type: cell-based; conditions: clinical isolate – animal, penicillin-resistant (PRSA)
Procedure, shortened: as §1

[3] = tested on: six bacteria (S. aureus, E. coli, P. aeruginosa; ATCC and clinical isolate); assay type: cell-based; conditions: synthesized mature peptide; antimicrobial screening Phase I; Y/N summary over bacteria tested, broth microdilution
Procedure, shortened: (§2)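 CLSI broth microdilution, MHB ± cations ± 10% lysed horse blood; peptide 64-0.125μg/mL final, duplicates; 5 x 10^5 CFU/mL; 35°C, 20–24 h; MIC = no visible growth.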

[4] = tested on: Streptococcus agalactiae ATCC 12386; assay: microbe, parasite or virus in culture; assay type: cell-based; conditions: ATCC 12386; read-out: MIC S. agalactiae ATCC
Procedure, shortened: as §1

[5] = tested on: Streptococcus pneumoniae ATCC 49619; assay: microbe, parasite or virus in culture; assay type: cell-based; conditions: ATCC 49619; read-out: MIC S. pneumoniae ATCC
Procedure, shortened: as §1

[6] = tested on: Streptococcus agalactiae Clinical isolate - animal; assay: microbe, parasite or virus in culture; assay type: cell-based; conditions: clinical isolate - animal; read-out: MIC S. agalactiae
Procedure, shortened: as §1

S. aureus ATCC 29213 = assay: Killing kinetics (time kill assay); assay type: cell-based, Staphylococcus aureus; conditions: MHB, 35°C, sampled 1-24 hours, n = 2
Description: The killing kinetics assay was conducted using mid-logarithmic phase cultures of E. coli ATCC 25922 and S. aureus ATCC 29213 in MHB. Cultures were adjusted to a 0.5 McFarland standard, diluted in MHB, and then 100µL was added to each culture tube containing 10mL pre-warmed MHB to give a final inoculum concentration of 5 x 10^5 CFU/mL. A sterility control of 100uL MHB, growth control (no cathelicidin), and vehicle control (DMSO) were also included. Furthermore, 10uL was immediately removed from the growth control tube, diluted 1/1000 in saline and 100µL plated onto MHA in duplicate to confirm inoculum density. To establish colony counts from 0 hours of cathelicidin treatment, 200µL was removed from each culture tube and serially diluted ten-fold in saline from 10^0 to […] in a total volume of 200µL. Then, 10µL of each dilution was spotted onto MHA in duplicate, which were incubated at 35°C for 24 hours.
All culture tubes were then incubated at 35°C static. At 1, 2, 4, 6, 8, 10, 12, and 24 hours post-cathelicidin treatment, 200µL was removed from each culture tube for dilution and plated on MHA as described above. […] Counts of duplicates were averaged, and the log10 CFU/mL graphed against time. This was used as input for one-way ANOVA (p < 0.05) followed by Dunnett’s post hoc test.

[7] = tested on: three fungi (Candida krusei, Candida parapsilosis, Candida albicans); assay: Antifungal screening, summary over the panel of fungi (broth microdilution); assay type: cell-based; conditions: synthesized mature peptide; antimicrobial screening Phase I; Y/N summary over fungi tested, broth microdilution
Description: Antimicrobial testing of 78 cathelicidin MPs was performed in two phases as outlined in Figure 1 . In phase I, 40 peptides (27 extant and 13 ancestral) were selected for testing based on rank (outlined above) and similarity to published marsupial cathelicidins with known antimicrobial activity ([33], [41]–[43]). These peptides were tested against nine bacteria (Staphylococcus aureus ATCC 29213 and clinical isolate, Escherichia coli ATCC 25922 and clinical isolate, Pseudomonas aeruginosa ATCC 27853 and clinical isolate, Streptococcus agalactiae ATCC 12386 and clinical isolate, Streptococcus pneumoniae ATCC 49619) and three fungi (Candida krusei ATCC 6258, Candida parapsilosis ATCC 22019, and Candida albicans clinical isolate). Details regarding these strains are available in Supplementary Table 4 . The antimicrobial activity of cathelicidins was determined as the minimum inhibitory concentration (MIC), which was the lowest concentration of cathelicidin that prevented visible bacterial or fungal growth, relative to the negative control. […] Minimum bactericidal concentration (MBC) and/or minimum fungicidal concentration (MFC) was conducted to determine microbicidal versus static action. Activity against S. aureus ATCC, E. coli ATCC, and Pseudomonas aeruginosa ATCC 27853 was examined in the presence of divalent cations to determine the impact of inhibitors.
Antimicrobial activity was determined using a broth microdilution susceptibility assay in 96 well polypropylene plates according to Clinical Laboratory Standards Institute guidelines M07-A and M26A as described previously ([33], [42], [43]). The bacterial and fungal isolates from humans and animals used in this study are outlined in Supplementary Table 4 . Only yeasts were included in the panel of fungi as they have been used in the susceptibility testing of eutherian ([3], [81]–[83]) and other marsupial cathelicidins previously ([33], [42], [43]). Cathelicidin mature peptides were solubilized in DMSO and serially diluted in duplicate from 128-0.25μg/mL in a final volume of 100µL. For bacteria, cathelicidins were diluted in Mueller Hinton Broth (MHB) with or without 10% lysed horse blood, and with (MH II B) or without (MHB) calcium and magnesium cations. For fungi, cathelicidins were diluted in Roswell Park Memorial Institute medium (RPMI)-1640 MOPS. Ampicillin or tetracycline were included as a positive control for Gram-positive and -negative bacteria respectively, while amphotericin B was used for fungi. A media-only negative control and growth control (no cathelicidin) were also included on each plate. Bacteria were sub-cultured on Muller Hinton agar (MHA) or sheep blood agar (BA), and fungi on Sabouraud dextrose agar (SAB), 20–24 hours prior to the test. Colonies were suspended in saline, the concentration adjusted to a 0.5 McFarland standard, and then diluted in media to a concentration of 1.0 x 10^6 cells/mL. Then, 100μL was added to each well of the cathelicidin dilution plate, giving a final inoculum density of 5 x 10^5 CFU/mL and cathelicidin concentration of 64-0.125μg/mL. Colony counts were performed on MHA/BA/SAB to confirm inoculum density. All plates were incubated at 35°C for 20–24 hours, depending on the strain.
Colonies were counted and compared to the colony count of the starting inoculum.

[8] = tested on: Pseudomonas aeruginosa clinical isolate - animal; assay: microbe, parasite or virus in culture; assay type: cell-based; conditions: clinical isolate - animal; read-out: MIC P. aeruginosa
Procedure, shortened: as §2

[9] = tested on: Escherichia coli ATCC 25922; assay: microbe, parasite or virus in culture; assay type: cell-based
Procedure, shortened: as §2

[10] = tested on: Pseudomonas aeruginosa ATCC 27853; assay: microbe, parasite or virus in culture; assay type: cell-based; conditions: ATCC 27853; read-out: MIC P. aeruginosa ATCC
Procedure, shortened: as §2

[11] = tested on: Escherichia coli clinical isolate - animal; assay: microbe, parasite or virus in culture; assay type: cell-based
Procedure, shortened: as §2

[12] = tested on: Staphylococcus aureus ATCC 29213; assay: microbe, parasite or virus in culture; assay type: cell-based
Procedure, shortened: as §2

[13] = tested on: Staphylococcus aureus clinical isolate - animal; assay: microbe, parasite or virus in culture; assay type: cell-based
Procedure, shortened: as §2

[14] = clinical isolate, MHB without cations, 5 x 10^5 CFU/mL, 35°C 20–24 hours, duplicate
[15] = clinical isolate, superscript value, cation-adjusted Mueller Hinton broth
[16] = clinical isolate, value in brackets, 99.9% reduction in CFU/mL

In the case of `CC[C@H](C)[C@H](NC(=O)[C@H](CCCCN)NC(=O)CNC(=O)[C@H](CC(C)C)NC(=O)CNC(=O)[C@H](CCC(N)=O)NC(=O)CNC(=O)[C@H](CC(C)C)NC(=O)[C@@H]1CCCN1C(=O)[C@H](CCCCN)NC(=O)[C@H](CCSC)NC(=O)[C@H](CC(C)C)NC(=O)[C@H](CCCCN)NC(=O)[C@H](CCCCN)NC(=O)[C@H](CCCCN)NC(=O)CNC(=O)CNC(=O)[C@H](CCCNC(=N)N)NC(=O)[C@@H](N)CCCCN)C(=O)N[C@@H](CC(C)C)C(=O)N[C@@H](CCCCN)C(=O)N[C@@H](Cc1c[nH]cn1)C(=O)N[C@@H](Cc1ccccc1)C(=O)N[C@@H](CC(N)=O)C(=O)N[C@H](C(=O)N[C@@H](CC(=O)O)C(=O)N[C@@H](Cc1ccccc1)C(=O)N[C@@H](CS)C(=O)NCC(=O)N[C@@H](CC(N)=O)C(=O)N[C@@H](CS)C(=O)O)[C@@H](C)CC` [MAP11] (H-KRGGKKKLMKPLGQGLGKILKHFNIDFCGNC-OH; N-terminus and C-terminus assumed), the MBC MRSA [1] is reported as 9.3 µM (≈ 31.9 µg/mL), the MIC MRSA [1] is reported as 9.3 µM (≈ 31.9 µg/mL) and the MBC PRSA [2] is reported as 4.6 µM (≈ 15.8 µg/mL). For the same compound, the MIC PRSA [2] was 4.6 µM (≈ 15.8 µg/mL), the “Antibacterial (MIC <64ug/mL)” value [3] was “Y (Antibacterial (MIC <64ug/mL))” and the MIC [4] was greater than 18.6 µM. For the same compound, the MIC [5] was greater than 18.6 µM, the MIC [6] was greater than 18.6 µM and the “Number of hours to cause a significant reduction in log CFU/mL of S. aureus ATCC (p < 0.05)” value (S. aureus ATCC 29213; 0.5x MIC) was 4 hours. For the same compound, the “Number of hours to cause a significant reduction in log CFU/mL of S. aureus ATCC (p < 0.05)” value (S. aureus ATCC 29213; 2x MIC) was 2 hours, the “Number of hours to cause a significant reduction in log CFU/mL of S. aureus ATCC (p < 0.05)” value (S. aureus ATCC 29213; MIC) was 4 hours and the “Antifungal (MIC <64ug/mL)” value [7] was “N (Antifungal (MIC <64ug/mL))”. For the same compound, the MIC [8] was greater than 18.6 µM, the “MBC E. coli ATCC” value ([9]; ATCC 25922) was 18.6 µM and the MIC ([9]; ATCC 25922, read-out: MIC E. coli ATCC) was 9.3 µM (≈ 31.9 µg/mL). The MIC ([9]; ATCC 25922, read-out: MIC in the presence of cations E. coli ATCC) was 9.3 µM, the “MIC E. coli ATCC” value ([9]; MHB without cations, 5 x 10^5 CFU/mL, 35°C 20–24 hours, duplicate) was 32 µg/mL (≈ 9.33 µM) and the “MIC in the presence of cations E. coli ATCC” value ([9]; superscript value, cation-adjusted Mueller Hinton broth) was 32 µg/mL. The “MBC E. coli ATCC” value ([9]; value in brackets, 99.9% reduction in CFU/mL) was 64 µg/mL, the MIC [10] was greater than 18.6 µM and the “MBC E. coli” value ([11]; clinical isolate - animal) was 9.3 µM. The MIC ([11]; clinical isolate - animal) was 9.3 µM (≈ 31.9 µg/mL), the “MIC in the presence of cations E. coli” value ([11]; clinical isolate - animal) was 18.6 µM and the “MIC E. coli” value [11, 14] was 32 µg/mL (≈ 9.33 µM). For the same compound, the “MIC in the presence of cations E. coli” value [11, 15] was 64 µg/mL, the “MBC E. coli” value [11, 16] was 32 µg/mL and the “MIC S. aureus ATCC” value ([12]; ATCC 29213) was 16 µg/mL (≈ 4.66 µM). For the same compound, the “MIC in the presence of cations S. aureus ATCC” value ([12]; superscript value, cation-adjusted Mueller Hinton broth (calcium and magnesium)) was 32 µg/mL, the “MBC S. aureus ATCC” value ([12]; value in brackets, 99.9% reduction in CFU/mL relative to starting inoculum) was 32 µg/mL (≈ 9.33 µM) and the “MBC S. aureus” value ([13]; clinical isolate - animal) was 9.3 µM. The MIC ([13]; clinical isolate - animal, read-out: MIC S. aureus) was 9.3 µM (≈ 31.9 µg/mL), the MIC ([13]; clinical isolate - animal, read-out: MIC in the presence of cations S. aureus) was 4.6 µM and the “MIC S. aureus” value [13, 14] was 32 µg/mL (≈ 9.33 µM). The “MIC in the presence of cations S. aureus” value [13, 15] was 16 µg/mL and the “MBC S. aureus” value [13, 16] was 32 µg/mL.
